Assay results reported in patent US20250326748A1, “COMPOUNDS AND METHODS FOR MODULATING SPLICING” (REMIX THERAPEUTICS INC., priority 2022, published 2025).
Counter-ions that a name gives are not always drawn. Like-named read-outs stand apart in the source and are kept apart here.

Experiments:
Target C = assay: HiBiT protein abundance assay, Target C (K562 HiBiT knock-in); assay type: cell-based, human; conditions: HiBiT knock-in cells, 24 hours
Experimental: (§1) Cells were maintained in IMDM with 10% FBS. Before the assay, cells were diluted with […] growth media (IMDM+1% FBS media) and were seeded in a 384-well plate at a density of 10000 cells/well (for each cell line listed in Table 6). Each compound was prepared as a 10-point 3-old serial dilution in DMSO with the top dose at a final concentration of 10 μM in the well. Unmodified K562 cells were added at the previously specified density with DMSO to serve as an assay baseline and positive control (PC) and DMSO only with the respective modified cell lines was added to the negative control (NC) columns. Final DMSO concentration was kept at or below 0.25%. Treated cell plates were placed in an incubator at 37° C. with 5% CO2 for 24 hours. After 24 hours, 25 μL of Complete HiBit Lytic reagent was added to each well at room temperature (e.g. one plate requiring 10 ml Lytic Buffer, 100 μL LgBiT Protein, 200 μL Lytic Substrate), shaken for 5 minutes at 600 RPM, then left to sit for 10 minutes for signal to stabilize before reading on a Spark Cyto plate reader (Tecan) with a 500 ms measurement time.
(§2) To determine compound effects on protein abundance of each target in Table 6, the percent response for each respective cell line was calculated at each compound concentration as follows:
(§3) For the normalized response at each concentration, a four-parameter logistical regression was fit to the data and the response was interpolated at the 50% value to determine a concentration for protein abundance at 50% (IC50) the untreated control.

HTT mRNA = assay: Splicing RT-qPCR assay, HTT canonical (CJ) and alternative (AJ) junction mRNA; assay type: cell-based, human; conditions: Homo sapiens; for IC50: canonical junction mRNA; for AC50: alternative junction mRNA, read-out: HTT AJ (AC50, increase in AJ mRNA)
How it was run: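 Read-out: one-step RT-qPCR on crude lysates measuring exon-exon junction isoforms, CJ for the canonical transcript and AJ for compound-induced exon inclusion. Normalization used PPIA for adherent A673 and GAPDH or GUSB for K562. Cells received 11 doses, 3-fold apart, top 10 uM, for 24 h.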

K562 cells = assay: Cell viability, Cell Titer Glo 2.0 assay, K562; conditions: 72 hours
HiBiT-tagged HTT protein = assay: HiBiT protein abundance assay, HTT (K562 HiBiT knock-in); assay type: cell-based, human; conditions: HiBiT knock-in cells, 24 hours
Experimental: Compounds described herein were used to screen for effects on quantitative protein abundance using a HiBit assay system (Promega). Quantitative protein abundance was determined by measuring the protein levels of HiBit-tagged protein targets expressed in cell culture via luminescence using the Nano-Glo HiBiT Lytic Detection System, which uses a split complementation assay format to reconstitute NanoBiT enzyme to generate a luminescent signal. A protein abundance assay was developed such that endogenous protein targets could be modified with the HiBiT peptide tag and their abundance could be assessed after compound treatment. Briefly, K562 cell lines containing a HiBiT-modification were treated with various compounds described herein (e.g., compounds of Formulas (I), or (II)). After treatment for 24 hours, the protein abundance of a specific target was determined by measuring luminescence.
• Promega Nano-Glo HiBiT Lytic Detection System (cat #N3030) • Corning 384-well TC-treated microplates (cat #3570)
as §1, §2, §3

[1] = 24 h, RT-qPCR, A673 or K562 cells, 24 hours treatment, read-out: HTT CJ (IC50, decrease in CJ mRNA)
[2] = qPCR panel, read-out: HTT CJ (decrease in CJ mRNA levels, IC50)
[3] = RT-qPCR, A673 or K562 cells, 24 hours treatment

CN[C@H]1CN(c2cnc3nc(-c4cc5cn(C)nc5c(C)c4O)ccc3c2)C[C@H]1C [Compound 125, 2,7-dimethyl-5-{6-[(3R,4R)-3-methyl-4-(methylamino)379pyrrolidine-1-yl]-1,8-naphthyridin-2-yl}indazol-6-ol]
IC50 (Target C): 100 to 1000 nM | IC50 (HTT mRNA; [1]): 100 to 1000 nM | IC50 (HTT mRNA; [2]): 100 to 1000 nM | AC50 (HTT mRNA; [3]): 100 to 1000 nM | Effect on Cell Viability, K562 (K562 cells): A (<100 nM) | IC50 (HiBiT-tagged HTT protein): < 100 nM

CN[C@@H]1CN(c2cnc3nc(-c4cc5cn(C)nc5c(C)c4O)ccc3c2)C[C@H]1C [Compound 126, 2,7-dimethyl-5-{6-[(3R,4S)-3-methyl-4-(methylamino)382pyrrolidine-1-yl]-1,8-naphthyridin-2-yl}indazol-6-ol]
IC50 (Target C): 1000 to 10000 nM | IC50 (HTT mRNA; [1]): 100 to 1000 nM | IC50 (HTT mRNA; [2]): 100 to 1000 nM | AC50 (HTT mRNA; [3]): 1000 to 10000 nM | Effect on Cell Viability, K562 (K562 cells): B (100-1000 nM) | IC50 (HiBiT-tagged HTT protein): 100 to 1000 nM

CN[C@H]1CN(c2cnc3nc(-c4cc5cn(C)nc5c(C)c4O)ccc3c2)C[C@@H]1C [Compound 127, 2,7-dimethyl-5-{6-[(3S,4R)-3-methyl-4-(methylamino)384pyrrolidine-1-yl]-1,8-naphthyridin-2-yl}indazol-6-ol]
IC50 (Target C): 100 to 1000 nM | IC50 (HTT mRNA; [1]): 100 to 1000 nM | IC50 (HTT mRNA; [2]): 100 to 1000 nM | AC50 (HTT mRNA; [3]): 100 to 1000 nM | Effect on Cell Viability, K562 (K562 cells): A (<100 nM) | IC50 (HiBiT-tagged HTT protein): < 100 nM

CN[C@@H]1CN(c2cnc3nc(-c4cc5cn(C)nc5c(C)c4O)ccc3c2)C[C@@H]1C [Compound 128]
IC50 (Target C): 100 to 1000 nM | IC50 (HTT mRNA; [1]): 100 to 1000 nM | IC50 (HTT mRNA; [2]): 100 to 1000 nM | AC50 (HTT mRNA; [3]): 100 to 1000 nM | Effect on Cell Viability, K562 (K562 cells): A (<100 nM) | IC50 (HiBiT-tagged HTT protein): 100 to 1000 nM

CN[C@H]1CN(c2cnc3nc(-c4cc5cn(C)nc5c(C)c4O)ccc3c2)C[C@H]1F [Compound 129, 5-{6-[(3R,4S)-3-fluoro-4-(methylamino)pyrrolidin-1-yl]-1,8-naphthyridin-2-yl}-2,7-dimethylindazol-6-ol]
IC50 (Target C): 100 to 1000 nM | IC50 (HTT mRNA; [1]): 100 to 1000 nM | IC50 (HTT mRNA; [2]): 100 to 1000 nM | AC50 (HTT mRNA; [3]): 100 to 1000 nM | Effect on Cell Viability, K562 (K562 cells): B (100-1000 nM) | IC50 (HiBiT-tagged HTT protein): 100 to 1000 nM

CN[C@@H]1CN(c2cnc3nc(-c4cc5cn(C)nc5c(C)c4O)ccc3c2)C[C@@H]1F [Compound 132, 5-{6-[(3S,4R)-3-fluoro-4-(methylamino)pyrrolidin-1-yl]-1,8-naphthyridin-2-yl}-2,7-dimethylindazol-6-ol]
IC50 (Target C): 100 to 1000 nM | IC50 (HTT mRNA; [1]): 100 to 1000 nM | IC50 (HTT mRNA; [2]): 100 to 1000 nM | AC50 (HTT mRNA; [3]): 100 to 1000 nM | Effect on Cell Viability, K562 (K562 cells): B (100-1000 nM) | IC50 (HiBiT-tagged HTT protein): 100 to 1000 nM

Cn1cc2cc(-c3cnc4nc(N5CCC(NC(C)(C)C)C5)ccc4c3)c(O)cc2n1 (stereo not drawn) [Compound 133, 5-{7-[3-(tert-butylamino)pyrrolidin-1-yl]-1,8-naphthyridin-3-yl}-2-methylindazol-6-ol]
IC50 (Target C): 1000 to 10000 nM | IC50 (HTT mRNA; [1]): 1000 to 10000 nM | IC50 (HTT mRNA; [2]): 1000 to 10000 nM | AC50 (HTT mRNA; [3]): > 10000 nM | Effect on Cell Viability, K562 (K562 cells): D (greater than 10 μM) | IC50 (HiBiT-tagged HTT protein): 100 to 1000 nM

Cn1cc2cc(-c3ccc4cc(N5CCC(NC(C)(C)C)C5)cnc4n3)c(O)cc2n1 (stereo not drawn) [Compound 134, 5-{6-[3-(tert-butylamino)pyrrolidin-1-yl]-1,8-naphthyridin-2-yl}-2-methylindazol-6-ol hydrochloride]
IC50 (Target C): 100 to 1000 nM | IC50 (HTT mRNA; [1]): 100 to 1000 nM | IC50 (HTT mRNA; [2]): 100 to 1000 nM | AC50 (HTT mRNA; [3]): 100 to 1000 nM | Effect on Cell Viability, K562 (K562 cells): B (100-1000 nM) | IC50 (HiBiT-tagged HTT protein): 100 to 1000 nM

Cn1cc2cc(-c3ccc4cc(N5CC[C@@H](NCC6CC6)C5)cnc4n3)c(O)c(F)c2n1 [Compound 135, 5-{6-[(3R)-3-[(cyclopropylmethyl)amino]330pyrrolidine-1-yl]-1,8-naphthyridin-2-yl}-7-fluoro-2-methylindazol-6-ol]
IC50 (Target C): < 100 nM | IC50 (HTT mRNA; [1]): < 100 nM | IC50 (HTT mRNA; [2]): < 100 nM | AC50 (HTT mRNA; [3]): < 100 nM | Effect on Cell Viability, K562 (K562 cells): A (<100 nM) | IC50 (HiBiT-tagged HTT protein): < 100 nM

Cn1cc2cc(-c3ccc4cc(N5CC[C@H](NCC6CC6)C5)cnc4n3)c(O)c(F)c2n1 [Compound 136, 5-{6-[(3S)-3-[(cyclopropylmethyl)amino]326pyrrolidine-1-yl]-1,8-naphthyridin-2-yl}-7-fluoro-2-methylindazol-6-ol]
IC50 (Target C): 100 to 1000 nM | IC50 (HTT mRNA; [1]): 100 to 1000 nM | IC50 (HTT mRNA; [2]): 100 to 1000 nM | AC50 (HTT mRNA; [3]): 100 to 1000 nM | Effect on Cell Viability, K562 (K562 cells): A (<100 nM) | IC50 (HiBiT-tagged HTT protein): 100 to 1000 nM

Cc1c(O)c(-c2ccc3cc(N4CCNCC4)cnc3n2)cc2cn(C)nc12 [Compound 137, 2,7-dimethyl-5-[6-(piperazin-1-yl)-1,8-naphthyridin-2-yl]indazol-6-ol]
IC50 (Target C): 100 to 1000 nM | IC50 (HTT mRNA; [1]): 100 to 1000 nM | IC50 (HTT mRNA; [2]): 100 to 1000 nM | AC50 (HTT mRNA; [3]): 100 to 1000 nM | Effect on Cell Viability, K562 (K562 cells): B (100-1000 nM) | IC50 (HiBiT-tagged HTT protein): 100 to 1000 nM

Cc1c(O)c(-c2ccc3cc(N4CCC(N(C)C)CC4)cnc3n2)cc2cn(C)nc12 [Compound 138, 5-{6-[4-(dimethylamino)piperidin-1-yl]-1,8-naphthyridin-2-yl}-2,7-dimethylindazol-6-ol]
IC50 (Target C): 1000 to 10000 nM | IC50 (HTT mRNA; [1]): 100 to 1000 nM | IC50 (HTT mRNA; [2]): 100 to 1000 nM | AC50 (HTT mRNA; [3]): 1000 to 10000 nM | Effect on Cell Viability, K562 (K562 cells): A (<100 nM) | IC50 (HiBiT-tagged HTT protein): 100 to 1000 nM

CNC1CCN(c2cnc3nc(-c4cc5cn(C)nc5c(C)c4O)cc(Cl)c3c2)C1 (stereo not drawn) [Compound 142, 5-{4-chloro-6-[3-(methylamino)351pyrrolidine-1-yl]-1,8-naphthyridin-2-yl}-2,7-dimethylindazol-6-ol]
IC50 (Target C): 100 to 1000 nM | IC50 (HTT mRNA; [1]): < 100 nM | IC50 (HTT mRNA; [2]): < 100 nM | AC50 (HTT mRNA; [3]): 100 to 1000 nM | Effect on Cell Viability, K562 (K562 cells): A (<100 nM) | IC50 (HiBiT-tagged HTT protein): < 100 nM

Cc1c(O)c(-c2cc(Cl)c3cc(N4CCC(N(C)C)C4)cnc3n2)cc2cn(C)nc12 (stereo not drawn) [Compound 143, 5-{4-chloro-6-[3-(dimethylamino)357pyrrolidine-1-yl]-1,8-naphthyridin-2-yl}-2,7-dimethylindazol-6-ol]
IC50 (Target C): 100 to 1000 nM | IC50 (HTT mRNA; [1]): 100 to 1000 nM | IC50 (HTT mRNA; [2]): 100 to 1000 nM | AC50 (HTT mRNA; [3]): 100 to 1000 nM | Effect on Cell Viability, K562 (K562 cells): B (100-1000 nM) | IC50 (HiBiT-tagged HTT protein): 100 to 1000 nM

Cc1c(O)c(-c2cc(Cl)c3cc(NC4CCNC4)cnc3n2)cc2cn(C)nc12 (stereo not drawn) [Compound 146, 5-[4-chloro-6-(359pyrrolidine-3-ylamino)-1,8-naphthyridin-2-yl]-2,7-dimethylindazol-6-ol]
IC50 (Target C): 100 to 1000 nM | IC50 (HTT mRNA; [1]): 100 to 1000 nM | IC50 (HTT mRNA; [2]): 100 to 1000 nM | AC50 (HTT mRNA; [3]): 100 to 1000 nM | Effect on Cell Viability, K562 (K562 cells): B (100-1000 nM) | IC50 (HiBiT-tagged HTT protein): 100 to 1000 nM

Cc1c(O)c(-c2cc(Cl)c3cc(N4CCNC(C)C4)cnc3n2)cc2cn(C)nc12 (stereo not drawn) [Compound 147]
IC50 (Target C): 1000 to 10000 nM | IC50 (HTT mRNA; [1]): 100 to 1000 nM | IC50 (HTT mRNA; [2]): 100 to 1000 nM | AC50 (HTT mRNA; [3]): 100 to 1000 nM | Effect on Cell Viability, K562 (K562 cells): B (100-1000 nM) | IC50 (HiBiT-tagged HTT protein): 100 to 1000 nM
